Source: patent US4755527A, “Aryl substituted aminomethyl benzene derivatives” (priority 1985, dated 1988)

Each compound was assayed on ventricular arrhythmias induced by two-stage ligation of the left anterior descending coronary artery (Harris dog) (assay: Antiarrhythmic activity by coronary ligation in the Harris dog model (i.v. infusion)). Conditions: Canis lupus familiaris; Harris dog, IV infusion; ED is the effective dose required to sustain normal sinus rhythm; read-out: Antiarrhythmic ED in Harris Dog.
Format: in vivo, dog (adult mongrel)
From the text: The following examples describe the pharmacological evaluation of the compounds made in accordance with the present invention. In particular, these examples describe the evaluation of antiarrhythmic activity by coronary ligation in the well known Harris dog model. Ventricular arrhythmias were induced in adult mongrel dogs (10-15 kg) of either sex by two-stage ligation of the left anterior descending coronary artery. […] The test compound in saline was infused intravenously at a cumulative rate of […] to 1.2 mg/kg/min (base) unitl normal sinus rhythm or toxicity occurred. Normal sinus rhythm was defined as 90-100% normal complexes over a 5 min period.

Which minimal effective dose does the source give for `Cc1ccc(C(=O)Nc2cc(CN3CCCC3)c(O)c(CN3CCCC3)c2)cc1` [V, N--(4-methylbenzoyl)-3,5,-bis(N--pyrrolidinylmethyl)-4-hydroxyaniline] here?
The minimal effective dose was 15 mg/kg.

`O=C(Nc1cc(CN2CCCC2)c(O)c(CN2CCCC2)c1)c1ccc(Cl)cc1` [IV, N--(4-chlorobenzoyl)-3,5,-bis(N--pyrrolidinylmethyl)-4-hydroxyaniline] was tested. Which minimal effective dose did it give?
The minimal effective dose was 7 mg/kg.

Which minimal effective dose does the source give for `O=C(Nc1cc(CN2CCCC2)c(O)c(CN2CCCC2)c1)c1ccc(C(F)(F)F)cc1` [XIII, N--(4-trifluoromethylbenzoyl)-3,5,-bis(N--pyrrolidinylmethyl)-4-hydroxyaniline] here?
The minimal effective dose was 9 mg/kg.

For `O=C(c1ccccc1)c1cc(CN2CCCC2)c(O)c(CN2CCCC2)c1` [Example II, 4-hydroxy-3,5-bis(pyrrolidinylmethyl)benzophenone], which minimal effective dose is on record?
Its minimal effective dose is 11 mg/kg.

With `Oc1c(CN2CCCC2)cc(OCc2ccccc2)cc1CN1CCCC1` [Example I, 4-benzyloxy-2,6-bis(pyrrolidinylmethyl)phenol] as the compound, how does the minimal effective dose read?
The minimal effective dose was 4.5 mg/kg.

Same assay, conditions: Harris dog, IV infusion; ED is the effective dose required to sustain normal sinus rhythm

`CC(=O)Nc1cc(CN2CCCC2)c(O)c(CN2CCCC2)c1` [Example XXIX, 3,5-bis(N-pyrrolidinylmethyl)-4-hydroxyacetanilide] was tested. Which “Antiarrhythmic ED in Harris Dog” value did it give?
The value was “inactive”.

How did the “Antiarrhythmic ED in Harris Dog” value turn out when `Nc1cc(CN2CCCC2)c(O)c(CN2CCCC2)c1` [Example XXX, 3,5-bis(N-pyrrolidinylmethyl)-4-hydroxyaniline] was run?
Its value is “inactive”.

With “2,6-bis(pyrrolidinylmethyl)-4-benzyl-phenol [XXXVI]” as the compound, how does the “Antiarrhythmic ED in Harris Dog” value read?
The value was “low activity”.

Each compound was assayed on ventricular arrhythmias induced by ouabain (Ouabain dog) (assay: Antiarrhythmic activity in the Ouabain dog model (i.v. infusion)). Conditions: Canis lupus familiaris; Ouabain dog, IV infusion; ED is the effective dose required to sustain normal sinus rhythm; read-out: Antiarrhythmic ED in Ouabain Dog.
Format: in vivo
Protocol: The following examples describe the pharmacological evaluation of the compounds in accordance with the present invention. In particular, these examples describe the evaluation of antiarrhythmic activity in the Oubain dog model. […] The test compound was infused intravenously in saline at a rate of about 0.3 to about 5 mg/kg/min until normal sinus rhythm or toxicity occurred. Normal sinus rhythm was defined as 90-100% normal complexes over a 5 minute period.

How did the minimal effective dose turn out when `Nc1ccc(C(=O)Nc2cc(CN3CCCC3)c(O)c(CN3CCCC3)c2)cc1` [XXVIII, N-(4-aminobenzoyl)-3,5-bis(pyrrolidinylmethyl)-4-hydroxyaniline] was run?
The minimal effective dose was 4.5 mg/kg.

`O=C(Nc1cc(CN2CCCCC2)c(O)c(CN2CCCCC2)c1)c1ccccc1` [Example XXXII, N-(benzoyl)3,5-bis(piperidinylmethyl)-4-hydroxyaniline] was tested. Which minimal effective dose did it give?
Its minimal effective dose is 11 mg/kg.

How did the minimal effective dose turn out when `O=C(NCc1cc(CN2CCCC2)c(O)c(CN2CCCC2)c1)c1ccc(C(F)(F)F)cc1` [XXXV, N-(4-trifluoromethyl)-3,5-bis(pyrrolidinylmethyl)-4-hydroxybenzylamine] was run?
The minimal effective dose was 4.5 mg/kg.

Which minimal effective dose does the source give for `O=C(NCc1cc(CN2CCCC2)c(O)c(CN2CCCC2)c1)c1ccccc1` [Example XXII, N-(benzoyl)-3,5-bis(pyrrolidinylmethyl)-4-hydroxybenzylamine] here?
The minimal effective dose was 3 mg/kg.

With `O=C(Nc1cc(CN2CCCC2)c(O)c(CN2CCCC2)c1)c1ccccc1Cl` [Example X, N--(2-chlorobenzoyl)-3,5,-bis(N--pyrrolidinylmethyl)-4-hydroxyaniline] as the compound, how does the minimal effective dose read?
Its minimal effective dose is 5.8 mg/kg.

How did the minimal effective dose turn out when `O=C(NCc1cc(CN2CCCC2)c(O)c(CN2CCCC2)c1)c1ccccc1C(F)(F)F` [XXIV, N--(2-trifluoromethylbenzoyl)-3,5-bis(pyrrolidinylmethyl)-4-hydroxybenzylamine] was run?
Its minimal effective dose is 1.7 mg/kg.

Which minimal effective dose does the source give for `O=C(NCc1cc(CN2CCCC2)c(O)c(CN2CCCC2)c1)c1ccccc1Cl` [XXVI, N--(2-chlorobenzoyl)-3,5-bis(pyrrolidinylmethyl)-4-hydroxybenzylamine] here?
Its minimal effective dose is 2.3 mg/kg.

`Cc1cccc(C)c1C(=O)Nc1cc(CN2CCCC2)c(O)c(CN2CCCC2)c1` [IXX, N--(2,6,dimethylbenzoyl)-3,5,-bis(N--pyrrolidinylmethyl)-4-hydroxyaniline] was tested. Which minimal effective dose did it give?
Its minimal effective dose is 4.3 mg/kg.

`O=C(Nc1cc(CN2CCCC2)c(O)c(CN2CCCC2)c1)c1cccs1` [Example XX, N--(2-thiophenecarbonyl)-3,5-bis(N--pyrrolidinylmethyl)-4-hydroxyaniline] was tested. Which minimal effective dose did it give?
The minimal effective dose was 1.9 mg/kg.

With `Cc1ccc(C(=O)Nc2cc(CN3CCCC3)c(O)c(CN3CCCC3)c2)cc1` [V, N--(4-methylbenzoyl)-3,5,-bis(N--pyrrolidinylmethyl)-4-hydroxyaniline] as the compound, how does the minimal effective dose read?
Its minimal effective dose is 3 mg/kg.

With `O=C(Nc1cc(CN2CCCC2)c(O)c(CN2CCCC2)c1)c1ccc(Cl)cc1` [IV, N--(4-chlorobenzoyl)-3,5,-bis(N--pyrrolidinylmethyl)-4-hydroxyaniline] as the compound, how does the minimal effective dose read?
Its minimal effective dose is 1.5 mg/kg.

How did the minimal effective dose turn out when `O=C(Nc1cc(CN2CCCC2)c(O)c(CN2CCCC2)c1)c1ccc(C(F)(F)F)cc1` [XIII, N--(4-trifluoromethylbenzoyl)-3,5,-bis(N--pyrrolidinylmethyl)-4-hydroxyaniline] was run?
The minimal effective dose was 5.25 mg/kg.

Which minimal effective dose does the source give for `O=C(c1ccccc1)c1cc(CN2CCCC2)c(O)c(CN2CCCC2)c1` [Example II, 4-hydroxy-3,5-bis(pyrrolidinylmethyl)benzophenone] here?
Its minimal effective dose is 1.9 mg/kg.

`Oc1c(CN2CCCC2)cc(OCc2ccccc2)cc1CN1CCCC1` [Example I, 4-benzyloxy-2,6-bis(pyrrolidinylmethyl)phenol] was tested. Which minimal effective dose did it give?
The minimal effective dose was 1.5 mg/kg.

The compounds below were run on Guinea Pig Ileum (assay: In vitro evaluation of anticholinergic activity in the isolated guinea pig ileum). Conditions: 4 mg/L; inhibition of field-stimulated contractile tension.
Parameters: species or system guinea pig (male Hartley)
Protocol: The following examples describe the in vitro evaluation of anticholinergic activity in the isolated guinea pig ileum. Fasted, male Hartley guinea pigs (300-400 g) were killed by a blow to the head. […] One end of the ileal strip was impaled onto a platinum wire electrode; and the other end was tied to a stationary glass rod. Basal tension was set at 0.1-0.3 g and peak developed tension in response to field stimulation (100-150 V, 10 msec pulse duration, 0.2 Hz) was measured with a tension transducer.

“2,6-bis(pyrrolidinylmethyl)-4-benzyl-phenol [XXXVI]” was tested. Which “Anticholinergic Inhibition of Guinea Pig Ileum (% inhibition at 4 mg/L)” value did it give?
Its value is 14%.

Same assay, conditions: Cavia porcellus; 4 mg/L; inhibition of field-stimulated contractile tension; read-out: Anticholinergic Inhibition of Guinea Pig Ileum (% inhibition at 4 mg/L)

For `Nc1ccc(C(=O)Nc2cc(CN3CCCC3)c(O)c(CN3CCCC3)c2)cc1` [XXVIII, N-(4-aminobenzoyl)-3,5-bis(pyrrolidinylmethyl)-4-hydroxyaniline], which inhibition at 4 µg/mL is on record?
Its inhibition at 4 µg/mL is 0%.

`O=C(Nc1cc(CN2CCCCC2)c(O)c(CN2CCCCC2)c1)c1ccccc1` [Example XXXII, N-(benzoyl)3,5-bis(piperidinylmethyl)-4-hydroxyaniline] was tested. Which inhibition at 4 µg/mL did it give?
The inhibition at 4 µg/mL was 33%.

`O=C(NCc1cc(CN2CCCC2)c(O)c(CN2CCCC2)c1)c1ccc(C(F)(F)F)cc1` [XXXV, N-(4-trifluoromethyl)-3,5-bis(pyrrolidinylmethyl)-4-hydroxybenzylamine] was tested. Which inhibition at 4 µg/mL did it give?
The inhibition at 4 µg/mL was 49%.

For `O=C(NCc1cc(CN2CCCC2)c(O)c(CN2CCCC2)c1)c1ccccc1` [Example XXII, N-(benzoyl)-3,5-bis(pyrrolidinylmethyl)-4-hydroxybenzylamine], which inhibition at 4 µg/mL is on record?
The inhibition at 4 µg/mL was 32%.

With `O=C(Nc1cc(CN2CCCC2)c(O)c(CN2CCCC2)c1)c1ccccc1Cl` [Example X, N--(2-chlorobenzoyl)-3,5,-bis(N--pyrrolidinylmethyl)-4-hydroxyaniline] as the compound, how does the inhibition at 4 µg/mL read?
Its inhibition at 4 µg/mL is 0%.

Which inhibition at 4 µg/mL does the source give for `O=C(NCc1cc(CN2CCCC2)c(O)c(CN2CCCC2)c1)c1ccccc1C(F)(F)F` [XXIV, N--(2-trifluoromethylbenzoyl)-3,5-bis(pyrrolidinylmethyl)-4-hydroxybenzylamine] here?
Its inhibition at 4 µg/mL is 8.5%.

How did the inhibition at 4 µg/mL turn out when `O=C(NCc1cc(CN2CCCC2)c(O)c(CN2CCCC2)c1)c1ccccc1Cl` [XXVI, N--(2-chlorobenzoyl)-3,5-bis(pyrrolidinylmethyl)-4-hydroxybenzylamine] was run?
The inhibition at 4 µg/mL was 18%.

How did the inhibition at 4 µg/mL turn out when `Cc1cccc(C)c1C(=O)Nc1cc(CN2CCCC2)c(O)c(CN2CCCC2)c1` [IXX, N--(2,6,dimethylbenzoyl)-3,5,-bis(N--pyrrolidinylmethyl)-4-hydroxyaniline] was run?
Its inhibition at 4 µg/mL is 15%.

For `O=C(Nc1cc(CN2CCCC2)c(O)c(CN2CCCC2)c1)c1cccs1` [Example XX, N--(2-thiophenecarbonyl)-3,5-bis(N--pyrrolidinylmethyl)-4-hydroxyaniline], which inhibition at 4 µg/mL is on record?
Its inhibition at 4 µg/mL is 4%.

With `Cc1ccc(C(=O)Nc2cc(CN3CCCC3)c(O)c(CN3CCCC3)c2)cc1` [V, N--(4-methylbenzoyl)-3,5,-bis(N--pyrrolidinylmethyl)-4-hydroxyaniline] as the compound, how does the inhibition at 4 µg/mL read?
Its inhibition at 4 µg/mL is 22%.

`O=C(Nc1cc(CN2CCCC2)c(O)c(CN2CCCC2)c1)c1ccc(Cl)cc1` [IV, N--(4-chlorobenzoyl)-3,5,-bis(N--pyrrolidinylmethyl)-4-hydroxyaniline] was tested. Which inhibition at 4 µg/mL did it give?
Its inhibition at 4 µg/mL is 49%.

With `O=C(Nc1cc(CN2CCCC2)c(O)c(CN2CCCC2)c1)c1ccc(C(F)(F)F)cc1` [XIII, N--(4-trifluoromethylbenzoyl)-3,5,-bis(N--pyrrolidinylmethyl)-4-hydroxyaniline] as the compound, how does the inhibition at 4 µg/mL read?
The inhibition at 4 µg/mL was 43%.

`O=C(c1ccccc1)c1cc(CN2CCCC2)c(O)c(CN2CCCC2)c1` [Example II, 4-hydroxy-3,5-bis(pyrrolidinylmethyl)benzophenone] was tested. Which inhibition at 4 µg/mL did it give?
Its inhibition at 4 µg/mL is 9%.

`Oc1c(CN2CCCC2)cc(OCc2ccccc2)cc1CN1CCCC1` [Example I, 4-benzyloxy-2,6-bis(pyrrolidinylmethyl)phenol] was tested. Which inhibition at 4 µg/mL did it give?
The inhibition at 4 µg/mL was 62%.

With `Nc1cc(CN2CCCC2)c(O)c(CN2CCCC2)c1` [Example XXX, 3,5-bis(N-pyrrolidinylmethyl)-4-hydroxyaniline] as the compound, how does the inhibition at 4 µg/mL read?
The inhibition at 4 µg/mL was 3%.
